Consider 10 compounds from PubChem BioAssay (NCI).

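Protocol summary: plate cells (96-well), add compound at 5 concentrations, incubate 48 h, interpolate endpoints linearly. Abbreviation: GI50, concentration required for 50% inhibition of growth. TGI: total growth inhibition.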

Some test systems named below: SR leukemia; SK-MEL-28 melanoma; SK-MEL-5 melanoma; CAKI-1 renal; KM12 colon; RPMI-8226 leukemia; CCRF-CEM leukemia; NCI-H522 lung; A498 renal; HCT-15 colon.
Common to all, as to test: inhibition of tumour cell growth, NCI panel, 48 h

`Cc1cc(N(CCC#N)CCC#N)ccc1N=Nc1ccc([N+](=O)[O-])cc1`: the TGI with SR leukemia is over 100 µM; in the assay on SK-MEL-28 melanoma, over 100 µM; with SK-MEL-5 melanoma it was over 10 µM; in the assay with CAKI-1 renal, over 100 µM; with KM12 colon it was over 100 µM; with RPMI-8226 leukemia, over 100 µM. Besides, the TGI in the assay on CCRF-CEM leukemia, in the assay with NCI-H522 lung, in the assay with A498 renal and in the assay with HCT-15 colon was over 100 µM each time.

As for `CC(=O)OCC1OC(n2cnc3c(I)nc(I)nc32)C(OC(C)=O)C1OC(C)=O` (centres undefined), the TGI amounted to 11.8 µM in the assay on SR leukemia; 28.5 µM in the assay with SK-MEL-28 melanoma; 26.1 µM in the assay with SK-MEL-5 melanoma; 4.09 µM in the assay with CAKI-1 renal; 15.6 µM with KM12 colon; 31.1 µM in the assay with RPMI-8226 leukemia. Moreover, the TGI in the assay with CCRF-CEM leukemia was found to be 27.4 µM; with NCI-H522 lung, 3.53 µM; with A498 renal, 38.3 µM; in the assay on HCT-15 colon, 15.6 µM.

As for `CCN1CCC(O)(c2ccccc2)C(C(=O)c2ccccc2)C1` (centres undefined), the TGI with SR leukemia was 60.3 µM; in the assay with SK-MEL-28 melanoma it was 33.4 µM; in the assay with SK-MEL-5 melanoma, over 100 µM; in the assay with CAKI-1 renal it was 19.3 µM; with KM12 colon, over 100 µM; in the assay with RPMI-8226 leukemia it was 33.4 µM. Also, the TGI was 38.3 µM in the assay with CCRF-CEM leukemia, 6.87 µM with NCI-H522 lung, over 100 µM in the assay on A498 renal and over 61.2 µM in the assay on HCT-15 colon.

With `COC12c3ccccc3-c3ccccc3C1[C@@H](C(=O)O)[C@H]2C(=O)O` (some centres undefined), the TGI with SR leukemia, with SK-MEL-28 melanoma, with SK-MEL-5 melanoma, in the assay on CAKI-1 renal, with KM12 colon and in the assay with RPMI-8226 leukemia was over 10 µM in each case. In addition, the TGI in the assay on CCRF-CEM leukemia, in the assay with NCI-H522 lung, in the assay with A498 renal and with HCT-15 colon was over 10 µM in each case.

Regarding `COc1cc(-c2cn(-c3ccc(Cl)cc3)c(=O)n2-c2ccccc2)cc(OC)c1OC`, the TGI with SR leukemia, with SK-MEL-28 melanoma, in the assay on SK-MEL-5 melanoma, with CAKI-1 renal, in the assay with KM12 colon and in the assay with RPMI-8226 leukemia was over 100 µM in each case. For the same compound, the TGI is over 100 µM in the assay on CCRF-CEM leukemia, over 100 µM with NCI-H522 lung, over 92.4 µM in the assay with A498 renal and over 100 µM in the assay on HCT-15 colon. In addition, the GI50 was 56.4 µM in the assay on SK-MEL-28 melanoma; 25.3 µM with SK-MEL-5 melanoma; over 100 µM in the assay with CAKI-1 renal; over 69.9 µM in the assay on KM12 colon; over 35.4 µM with RPMI-8226 leukemia; over 100 µM in the assay on CCRF-CEM leukemia. The GI50 with NCI-H522 lung was 45.1 µM; in the assay on A498 renal it was 18.7 µM; in the assay with HCT-15 colon, over 100 µM.

As for `O=C(/C=C/c1cccnc1)/C=C/c1cccnc1`, the GI50 with SR leukemia was 0.196 µM; in the assay with SK-MEL-28 melanoma, 1.95 µM; in the assay with SK-MEL-5 melanoma, 2.06 µM; in the assay on CAKI-1 renal, 4.28 µM; with KM12 colon, 0.428 µM; in the assay on RPMI-8226 leukemia, 0.0732 µM. Besides, the GI50 is 0.199 µM in the assay on CCRF-CEM leukemia, 1.77 µM in the assay on NCI-H522 lung, 1.94 µM in the assay with A498 renal and 0.523 µM with HCT-15 colon. The TGI in the assay with SR leukemia is over 100 µM; with SK-MEL-28 melanoma, 4.02 µM; in the assay on SK-MEL-5 melanoma it was 4.7 µM; in the assay with CAKI-1 renal, 26.6 µM; with KM12 colon it was 1.58 µM; in the assay on RPMI-8226 leukemia, 0.252 µM. In addition, the TGI turned out to be 0.821 µM in the assay on CCRF-CEM leukemia, 4.69 µM with NCI-H522 lung, 4.66 µM in the assay on A498 renal and 1.98 µM in the assay on HCT-15 colon.

Turning to `CCN=C(N)CSS(=O)(=O)O`, the TGI in the assay on SR leukemia, with SK-MEL-28 melanoma, with SK-MEL-5 melanoma, in the assay with CAKI-1 renal, in the assay on KM12 colon and in the assay with RPMI-8226 leukemia was over 100 µM each time. The TGI in the assay with CCRF-CEM leukemia, in the assay with NCI-H522 lung, in the assay on A498 renal and in the assay with HCT-15 colon was over 100 µM in each case.

On to `O=C1/C(=C\c2ccccc2)CN(C(=O)c2ccccc2F)C/C1=C\c1ccccc1`, for which the GI50 in the assay on SR leukemia was 0.407 µM; with SK-MEL-28 melanoma it was 2.08 µM; with SK-MEL-5 melanoma, 1.7 µM; in the assay on CAKI-1 renal, 3.4 µM; in the assay with KM12 colon it was 1.37 µM; with RPMI-8226 leukemia, 0.125 µM. Moreover, the GI50 in the assay on CCRF-CEM leukemia is 1.52 µM; in the assay with NCI-H522 lung, 1.78 µM; with A498 renal it was 2.63 µM; in the assay with HCT-15 colon, 1.88 µM. The TGI in the assay on SR leukemia was found to be 3.45 µM; in the assay on SK-MEL-28 melanoma, 4.05 µM; with SK-MEL-5 melanoma, 3.23 µM; in the assay with CAKI-1 renal, 12.8 µM; in the assay with KM12 colon, 3.11 µM; in the assay with RPMI-8226 leukemia, 0.72 µM. Further, the TGI in the assay with CCRF-CEM leukemia is 5.62 µM; with NCI-H522 lung, 3.47 µM; with A498 renal, 13.2 µM; in the assay on HCT-15 colon it was 4.11 µM.

Regarding `COC(=O)Oc1nn(C(=O)OC)c(=O)c2ccccc12` (tested in a mixture with another compound), the TGI in the assay on SR leukemia, in the assay with SK-MEL-28 melanoma, in the assay on SK-MEL-5 melanoma, in the assay on CAKI-1 renal, in the assay on KM12 colon and in the assay with RPMI-8226 leukemia was over 100 µM in each case. For the same compound, the TGI is over 100 µM in the assay on CCRF-CEM leukemia, over 100 µM in the assay on NCI-H522 lung, 99.4 µM in the assay on A498 renal and over 100 µM with HCT-15 colon.

As to `Nc1nccc(C#Cc2cncnc2Nc2ccc(OCc3cccc(F)c3)c(Cl)c2)n1`, the GI50 in the assay with SR leukemia was 3.18 µM; in the assay with SK-MEL-28 melanoma, 4.57 µM; in the assay on SK-MEL-5 melanoma, 3.51 µM; with CAKI-1 renal, 5.37 µM; in the assay on KM12 colon, 4.52 µM; in the assay on RPMI-8226 leukemia it was 5.62 µM. The GI50 with CCRF-CEM leukemia is 1.33 µM; in the assay on NCI-H522 lung, 2.23 µM; in the assay on A498 renal, 5.05 µM; in the assay on HCT-15 colon it was 3.69 µM. Besides, the TGI with SR leukemia is over 25 µM; in the assay with SK-MEL-28 melanoma, 8.29 µM; with SK-MEL-5 melanoma it was 6.8 µM; with CAKI-1 renal it was 11 µM; in the assay on KM12 colon, 8.2 µM; in the assay with RPMI-8226 leukemia, 16.9 µM. Moreover, the TGI in the assay on CCRF-CEM leukemia was over 19.2 µM; with NCI-H522 lung, 5.88 µM; in the assay on A498 renal, over 14.3 µM; in the assay on HCT-15 colon it was 11.4 µM.
